Assay results reported in ChEMBL document CHEMBL4145686, “Discovery of a Potent and Selective Steroidal Glucocorticoid Receptor Antagonist (ORIC-101)” (J Med Chem, 2018).
Activity calls are given as the source filed them. The rule behind the calls is not given here.

Legend:
[1] = test system: OVCAR-5; details: Homo sapiens, 100 mg/kg
[2] = AUC in rat at 5 mg/kg, po; type: ADME, organism-based; details: in vivo
[3] = biological target: T1, Glucocorticoid receptor (Canis lupus familiaris, UniProt A0A8C0QLS2); assay: Antagonist activity at GR in dog PBMC assessed as reduction in dexamethasone-induced FKBP5 gene expression incubated for 6 hrs by RT-qPCR method; type: cell-based
T1 sequence (A0A8C0QLS2 whole entry): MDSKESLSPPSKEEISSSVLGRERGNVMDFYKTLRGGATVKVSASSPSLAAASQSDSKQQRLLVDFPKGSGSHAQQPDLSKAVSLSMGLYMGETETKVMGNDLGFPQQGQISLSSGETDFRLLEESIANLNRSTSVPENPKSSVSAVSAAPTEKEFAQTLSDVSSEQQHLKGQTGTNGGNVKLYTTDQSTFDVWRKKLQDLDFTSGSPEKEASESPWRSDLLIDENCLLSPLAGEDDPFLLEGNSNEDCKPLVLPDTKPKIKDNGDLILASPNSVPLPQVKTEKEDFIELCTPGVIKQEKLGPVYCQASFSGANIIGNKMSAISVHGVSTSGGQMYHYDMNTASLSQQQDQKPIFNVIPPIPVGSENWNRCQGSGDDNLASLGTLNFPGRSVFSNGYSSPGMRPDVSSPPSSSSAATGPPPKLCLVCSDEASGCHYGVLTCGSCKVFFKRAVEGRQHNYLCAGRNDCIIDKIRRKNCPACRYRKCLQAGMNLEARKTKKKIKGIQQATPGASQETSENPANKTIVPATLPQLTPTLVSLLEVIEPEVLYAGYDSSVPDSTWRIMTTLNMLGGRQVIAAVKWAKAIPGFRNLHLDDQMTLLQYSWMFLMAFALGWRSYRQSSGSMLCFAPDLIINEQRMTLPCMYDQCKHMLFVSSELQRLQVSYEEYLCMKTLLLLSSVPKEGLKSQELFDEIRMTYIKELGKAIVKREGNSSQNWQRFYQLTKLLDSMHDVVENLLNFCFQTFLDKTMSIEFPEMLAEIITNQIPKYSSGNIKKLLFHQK

[4] = biological target: T2, Glucocorticoid receptor (Sus scrofa, UniProt Q9N1U3); assay: Antagonist activity at GR in mini pig PBMC assessed as reduction in dexamethasone-induced FKBP5 gene expression incubated for 24 hrs by RT-qPCR method; type: cell-based
T2 sequence (Q9N1U3 whole entry): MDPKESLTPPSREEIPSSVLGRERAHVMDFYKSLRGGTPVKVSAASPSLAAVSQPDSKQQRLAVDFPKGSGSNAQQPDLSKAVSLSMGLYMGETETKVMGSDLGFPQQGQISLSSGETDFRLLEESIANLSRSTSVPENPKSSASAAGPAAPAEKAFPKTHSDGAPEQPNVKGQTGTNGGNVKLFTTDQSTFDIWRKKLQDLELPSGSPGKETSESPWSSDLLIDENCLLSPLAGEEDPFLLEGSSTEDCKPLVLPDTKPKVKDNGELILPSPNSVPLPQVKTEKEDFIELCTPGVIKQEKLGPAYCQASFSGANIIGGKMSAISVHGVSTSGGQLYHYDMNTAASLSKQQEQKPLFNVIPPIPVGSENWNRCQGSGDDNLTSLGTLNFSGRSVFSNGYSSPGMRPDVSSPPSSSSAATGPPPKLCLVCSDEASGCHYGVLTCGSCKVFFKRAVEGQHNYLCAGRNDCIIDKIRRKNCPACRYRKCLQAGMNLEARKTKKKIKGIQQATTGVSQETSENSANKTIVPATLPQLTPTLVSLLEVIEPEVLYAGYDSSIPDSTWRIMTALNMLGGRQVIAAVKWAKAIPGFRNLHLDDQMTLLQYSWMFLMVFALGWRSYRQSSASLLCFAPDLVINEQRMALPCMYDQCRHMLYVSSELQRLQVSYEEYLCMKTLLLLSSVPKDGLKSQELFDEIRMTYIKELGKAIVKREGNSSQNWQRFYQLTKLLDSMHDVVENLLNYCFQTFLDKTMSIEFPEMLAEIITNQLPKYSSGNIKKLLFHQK

[5] = Cmax in rat at 5 mg/kg, po; type: ADME, organism-based; design: dose 5 mg/kg, route oral; details: in vivo
[6] = Antagonist activity at GR in monkey PBMC assessed as reduction in dexamethasone-induced FKBP5 gene expression incubated for 6 hrs by RT-qPCR method; type: cell-based; details: Macaca mulatta
[7] = Clearance in rat at 0.5 mg/kg, iv; type: ADME, organism-based; details: in vivo
[8] = biological target: T3, glucocorticoid receptor (GR) (Homo sapiens, UniProt P04150); assay: Agonist activity at human GR expressed in CHO-K1 cells incubated for 20 hrs by luciferase reporter gene assay relative to dexamethasone; type: cell-based; details: CHO-K1 cells expressing human GR
T3 sequence (P04150 whole entry): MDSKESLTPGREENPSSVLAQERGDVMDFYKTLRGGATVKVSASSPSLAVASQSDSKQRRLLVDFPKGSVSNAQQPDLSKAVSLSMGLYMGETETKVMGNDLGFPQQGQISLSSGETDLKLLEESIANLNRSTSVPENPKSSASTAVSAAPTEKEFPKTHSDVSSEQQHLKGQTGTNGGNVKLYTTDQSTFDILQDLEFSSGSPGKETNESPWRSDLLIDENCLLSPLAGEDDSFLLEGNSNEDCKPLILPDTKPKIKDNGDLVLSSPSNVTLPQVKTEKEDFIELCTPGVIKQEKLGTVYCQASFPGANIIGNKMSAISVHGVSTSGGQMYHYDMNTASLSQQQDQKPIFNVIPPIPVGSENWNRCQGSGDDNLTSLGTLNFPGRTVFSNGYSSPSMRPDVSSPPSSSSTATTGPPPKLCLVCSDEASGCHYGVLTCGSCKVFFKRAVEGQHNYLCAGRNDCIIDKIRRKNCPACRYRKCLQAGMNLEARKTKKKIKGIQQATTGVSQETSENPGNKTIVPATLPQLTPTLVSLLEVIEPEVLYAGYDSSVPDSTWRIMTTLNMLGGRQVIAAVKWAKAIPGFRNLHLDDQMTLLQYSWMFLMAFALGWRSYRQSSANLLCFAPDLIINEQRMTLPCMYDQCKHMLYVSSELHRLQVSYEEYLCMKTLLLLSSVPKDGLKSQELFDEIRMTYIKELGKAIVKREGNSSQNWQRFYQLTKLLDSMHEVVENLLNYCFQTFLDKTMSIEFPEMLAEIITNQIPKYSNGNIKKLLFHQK

[9] = biological target: T2, Glucocorticoid receptor; assay: Antagonist activity at GR in mini pig PBMC assessed as reduction in dexamethasone-induced GILZ gene expression incubated for 24 hrs by RT-qPCR method; type: cell-based
[10] = Volume of distribution at steady state in rat at 0.5 mg/kg, iv; type: ADME, organism-based; details: in vivo, read-out: Vdss
[11] = biological target: T4, Cytochrome P450 2C8 (Homo sapiens, UniProt P10632); assay: Inhibition of CYP2C8 (unknown origin) using […] as substrate; type: ADME
T4 sequence (P10632 whole entry): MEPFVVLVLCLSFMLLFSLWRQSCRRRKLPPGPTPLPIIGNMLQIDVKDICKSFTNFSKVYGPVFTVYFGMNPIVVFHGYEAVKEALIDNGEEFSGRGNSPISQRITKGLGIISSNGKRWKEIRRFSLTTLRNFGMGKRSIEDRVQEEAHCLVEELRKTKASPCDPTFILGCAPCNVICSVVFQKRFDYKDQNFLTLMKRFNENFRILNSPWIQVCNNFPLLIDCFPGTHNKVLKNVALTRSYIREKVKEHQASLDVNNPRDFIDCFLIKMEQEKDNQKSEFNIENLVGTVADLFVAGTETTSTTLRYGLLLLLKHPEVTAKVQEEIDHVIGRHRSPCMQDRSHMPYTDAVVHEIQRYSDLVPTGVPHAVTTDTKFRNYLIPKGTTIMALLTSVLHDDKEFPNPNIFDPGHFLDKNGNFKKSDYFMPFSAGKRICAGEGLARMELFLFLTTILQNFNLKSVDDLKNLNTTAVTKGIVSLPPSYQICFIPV

[12] = Half life in rat at 0.5 mg/kg, iv; type: ADME, organism-based; details: in vivo
[13] = Antagonist activity at GR in monkey PBMC assessed as reduction in dexamethasone-induced GILZ gene expression incubated for 6 hrs by RT-qPCR method; type: cell-based; details: Macaca mulatta
[14] = biological target: T1, Glucocorticoid receptor; assay: Antagonist activity at GR in dog PBMC assessed as reduction in dexamethasone-induced GILZ gene expression incubated for 6 hrs by RT-qPCR method; type: cell-based
[15] = biological target: Cytochrome P450 2C9 (Homo sapiens, UniProt P11712); assay: Inhibition of CYP2C9 (unknown origin) using […] as substrate; type: ADME
[16] = Oral bioavailability in rat at 5 mg/kg; type: ADME, organism-based; details: in vivo
[17] = biological target: T5, Glucocorticoid receptor (Homo sapiens, UniProt P04150); assay: Antagonist activity at human GR expressed in CHO-K1 cells assessed as reduction in dexamethasone-induced response incubated for 20 hrs by luciferase reporter gene assay; type: cell-based
T5 sequence (P04150 whole entry): T3 sequence (P04150 whole entry)

[18] = biological target: T6, androgen receptor (AR) (Homo sapiens, UniProt P10275); assay: Agonist activity at AR (unknown origin) expressed in human LNCaP cells incubated for 20 hrs by luciferase reporter gene assay relative to mifepristone; type: cell-based; details: human LNCaP cells expressing AR
T6 sequence (P10275 whole entry): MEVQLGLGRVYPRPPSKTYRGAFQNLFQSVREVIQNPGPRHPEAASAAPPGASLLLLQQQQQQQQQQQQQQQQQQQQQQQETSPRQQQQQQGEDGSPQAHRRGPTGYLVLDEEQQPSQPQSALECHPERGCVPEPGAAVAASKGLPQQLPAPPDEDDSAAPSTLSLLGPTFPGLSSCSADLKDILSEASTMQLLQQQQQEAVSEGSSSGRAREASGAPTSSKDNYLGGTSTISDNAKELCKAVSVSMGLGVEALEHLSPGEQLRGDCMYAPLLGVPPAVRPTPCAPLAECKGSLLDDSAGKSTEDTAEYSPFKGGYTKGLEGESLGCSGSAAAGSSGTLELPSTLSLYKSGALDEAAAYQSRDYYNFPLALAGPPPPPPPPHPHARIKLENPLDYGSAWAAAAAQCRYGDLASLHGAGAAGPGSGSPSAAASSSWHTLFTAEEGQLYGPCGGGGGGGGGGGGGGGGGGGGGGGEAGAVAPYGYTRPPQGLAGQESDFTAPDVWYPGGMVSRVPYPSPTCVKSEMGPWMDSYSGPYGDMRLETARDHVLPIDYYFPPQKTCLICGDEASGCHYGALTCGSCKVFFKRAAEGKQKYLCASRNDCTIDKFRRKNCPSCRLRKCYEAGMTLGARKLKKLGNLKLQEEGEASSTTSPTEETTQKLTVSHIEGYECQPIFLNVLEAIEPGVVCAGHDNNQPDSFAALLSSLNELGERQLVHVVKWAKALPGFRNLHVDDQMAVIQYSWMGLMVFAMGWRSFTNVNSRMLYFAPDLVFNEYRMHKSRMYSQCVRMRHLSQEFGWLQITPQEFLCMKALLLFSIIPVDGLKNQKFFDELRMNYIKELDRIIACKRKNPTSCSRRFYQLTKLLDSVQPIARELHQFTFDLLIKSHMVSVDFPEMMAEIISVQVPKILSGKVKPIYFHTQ

[19] = biological target: T5, Glucocorticoid receptor; assay: Agonist activity at human GR expressed in CHO-K1 cells incubated for 20 hrs by luciferase reporter gene assay; type: cell-based
[20] = biological target: T7, Androgen receptor (Homo sapiens, UniProt P10275); assay: Agonist activity at AR (unknown origin) expressed in human LNCaP cells incubated for 20 hrs by luciferase reporter gene assay; type: cell-based
T7 sequence (P10275 whole entry): T6 sequence (P10275 whole entry)

Sequence of Cytochrome P450 2C9 (P11712 whole entry): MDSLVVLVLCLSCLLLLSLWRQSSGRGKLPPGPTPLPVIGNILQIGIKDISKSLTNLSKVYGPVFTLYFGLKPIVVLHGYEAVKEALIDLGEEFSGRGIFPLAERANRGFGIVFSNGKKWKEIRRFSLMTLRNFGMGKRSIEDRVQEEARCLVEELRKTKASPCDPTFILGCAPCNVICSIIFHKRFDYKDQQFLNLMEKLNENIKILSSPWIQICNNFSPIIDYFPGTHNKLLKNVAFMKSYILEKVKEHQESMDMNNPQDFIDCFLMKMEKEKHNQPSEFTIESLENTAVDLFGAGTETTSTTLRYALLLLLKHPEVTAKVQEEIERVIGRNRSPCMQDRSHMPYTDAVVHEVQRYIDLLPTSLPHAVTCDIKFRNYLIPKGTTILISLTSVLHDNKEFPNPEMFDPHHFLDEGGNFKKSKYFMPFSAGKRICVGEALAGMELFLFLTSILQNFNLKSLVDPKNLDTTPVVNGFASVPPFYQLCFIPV

IC50 [17]	Emax at 20 h [18]	EC50 [19]	EC50 [20]	SMILES	TGI [1]	AUC [2]	IC50 [3]	IC50 [4]	Cmax [5]	IC50 [6]	clearance [7]	Emax at 20 h [8]	IC50 [9]	Vd [10]	IC50 [11]	half-life [12]	IC50 [13]	IC50 [14]	IC50 [15]	bioavailability [16]
–	–	–	–	Nc1ccn([C@@H]2O[C@H](CO)[C@@H](O)C2(F)F)c(=O)n1	Active	–	–	–	–	–	–	–	–	–	–	–	–	–	–	–
–	–	–	–	CC#C[C@]1(O)CC[C@H]2[C@@H]3CCC4=CC(=O)CCC4=C3[C@@H](c3ccc(N(C)C)cc3)C[C@@]21C [MIFEPRISTONE]	–	85 ng·h/mL	20.2 nM	19.7 nM	24 ng/mL	21.9 nM	61.7 mL/min/kg	3.1%	10.9 to 25.7 nM	4.1 L/kg	1500 nM	1.6 h	13.9 nM	32.6 nM	4900 nM	6.4%
43 nM	8.2%	> 2500 nM	> 2500 nM	CC(C)N(C)c1ccc([C@H]2C[C@@]3(C)[C@@H](CC[C@@]3(O)C#CC(C)(C)C)[C@@H]3CCC4=CC(=O)CCC4=C32)cc1	–	290 ng·h/mL	–	–	59 ng/mL	–	66.7 mL/min/kg	1.7%	–	4.7 L/kg	–	1.5 h	–	–	–	23%
